Assay [1] relates to PA14 nfxB (T39P) and mexS (L46F) mutants. As to the kind of experiment: Pyocyanin production. Particulars: for Pyocyanin production (Panel E): single replicates. It is filed as cell-based, Pseudomonas aeruginosa. The method, then: […] Cell-free supernatants were […] by centrifugation, and 100 μl were added to a 96-well plate in duplicate. The integrated absorbance spectrum from 306 to 326 nm was taken in a Tecan InfiniteM200 Pro plate reader to determine pyocyanin levels in each sample. A ΔpqsA sample was used to subtract out any background values, and pyocyanin levels were normalized by the ratio of OD600 between wildtype PA14 and the mutants to account for any slight differences in growth.

The test system of assay [2] is PA14. As to the kind of experiment: Checkerboard assay fluorofolin / sulfamethoxazole. It is filed as cell-based, Pseudomonas aeruginosa. Particulars: PA14, Fluorofolin 0 ug/mL. The procedure: Cells were seeded in a similar manner as described above for MIC calculations. […] Fractional inhibitory concentrations (FICs) were calculated as [[…], where [fluorofolin] and [SMX] are the concentrations of compounds in a given well, which were divided by the concentration of drug at the MIC for each compound.

Assay [3] has as its system P. aeruginosa PA14. Briefly: In vivo PA14 murine thigh infection. Particulars: neutropenic CD-1 mice, 24 h post infection; fluorofolin 25 mg kg^−1 subcutaneous and/or SMX 100 mg kg^−1 intraperitoneal at 1 and 12 h; one value per mouse. The source says: For P. aeruginosa thigh infection model and maximum tolerated dose (MTD) studies, care and handling of female 5–6-week-old CD-1 conformed to Institutional Animal Care and Use Committee (IACUC) policies as carried out at the University of North Texas Health Science Center (Fort Worth, Texas) under UNTHSC IACUC-approved protocol nos. IACUC-2021-0003 and IACUC-2020-0039. Rodents were fed either base chow (Envigo) or base diet supplemented with 1.8 g kg^−1 thymidine (Sigma T9250) starting at 2 days before infection. All procedures were conducted in accordance with the UNTHSC IACUC-approved protocol. Animals were housed in rooms undergoing 10–15 air changes per hour. Air provided to the animal rooms was controlled for temperature and humidity and is fully monitored 24 h a day. Air pressure was balanced according to room use. Lighting was controlled in individual rooms by automatic timers with a standard 12 h on, 12 h off cycle.
Female 5–6-week-old CD-1 mice were rendered neutropenic by intraperitoneal cyclophosphamide treatment (Cytoxan) before this study. On day 0, mice were infected intramuscularly with 5.33 log c.f.u. per thigh PA14. Mice were treated subcutaneously with fluorofolin at 1 and 12 h post infection. For co-treatment, mice were treated with SMX intraperitoneally at 1 and 12 h post infection. […] In vivo efficacy was evaluated by the UNTHSC.

Assay [4] relates to P. aeruginosa PA14. Briefly: Colony-forming units counting after antibiotic treatment. Type of assay: cell-based, Pseudomonas aeruginosa. Particulars: 2× MIC (fluorofolin 6.2, TMP 250, polymixin B 4 μg ml^−1). The method, then:
P. aeruginosa PA14 overnight cultures were diluted 1:100 and grown to exponential phase (OD600 = 0.4–0.6). Cultures were diluted 1:10 and treated with antibiotic. At each time point, 150 μl of culture was removed, serial diluted 1:10 six times and plated onto LB agar plates. Plates were grown overnight at 37 °C, after which visible colonies were counted. C.f.u.s ml^−1 are reported from dilutions in which ~10–100 single colonies were visible.

The record followed here is publication PMC11087268, “A folate inhibitor exploits metabolic differences in Pseudomonas aeruginosa for narrow-spectrum targeting” (Nature Microbiology, 2024).

Values joined by “and” are separate entries in the source; they are usually repeats but may differ in a detail not shown here. Equal entries are not always repeated.

On to `CCCCCCCc1[nH]c2ccccc2c(=O)c1O` [PQS, Pseudomonas quinolone signal], for which the “Pyocyanin production (Panel E)” value in assay [1] (PA14, + 1 uM PQS) was 15.8282 and 16.194 and 15.1165; in assay [1] (PqsA KO, + 1 uM PQS), 17.5069 and 16.392 and 16.1857; in assay [1] (mexS Mutant, + 1 uM PQS), 10.0838 and 9.877 and 13.1798; in assay [1] (nfxB mutant, + 1 uM PQS), 8.219 and 6.016 and 7.118. Also, the “pyocyanin production of nfxB and mexS mutants” value in assay [1] (PQS 1 μM added at inoculation) is “partially rescued”.

Consider `Cc1cc(NS(=O)(=O)c2ccc(N)cc2)no1` [SMX, Sulfamethoxazole, reference compound], for which the FIC index is reported as 1 in assay [2] (SMX 625.00 ug/mL) and 2 in assay [2] (SMX 1250.00 ug/mL). Moreover, the “PA14 load in thigh” value in assay [3] is 8.8 log 10(CFU/ mouse) and 8.33 log 10(CFU/ mouse) and 8.57 log 10(CFU/ mouse) and 7.94 log 10(CFU/ mouse).

Turning to polymixin B, the “PA14 CFU/mL, Mean” value in assay [4] (Time 0 h) is on record as 197000 CFU/mL; in assay [4] (Time 1 h), 81.6667 CFU/mL; in assay [4] (Time 2 h) it was 17.7778 CFU/mL; in assay [4] (Time 4 h), 20 CFU/mL.
